Tested on: senescence-associated acidic β-galactosidase (SA-β-gal) inducing TIG3 cells
Assay: FACS analysis of SA-β-gal in doxorubicin senescence-induced TIG3 cells (anti-aging action)
Format: cell-based, human
Conditions: 50 μM added after doxorubicin (150 nM), 48 hours
Method: In Example 5, an anti-aging action in a senescence-associated acidic β-galactosidase (SA-β-gal) inducing TIG3 cells (human embryonic fibroblast) in which TIBC-CANDDY_MLN had been added was evaluated by FACS analysis.
TIG3 cells as normal cells were seeded in a 24-well plate at a cell density of 8×10^4 cells/well, and then cultured under conditions of 37° C. and 5 vol % CO2 for 16 hours.
After 16 hours from cell seeding, doxorubicin was added to each well at 150 nM/well to induce cellular senescence. As a medium, a serum-free medium (37° C.) in which 1 mass % L-glutamine solution (Sigma-Aldrich) was added to D-MEM (high D-glucose, phenol red, sodium pyruvate (Wako Pure Chemical Industries, Ltd.)) was used. It is noted that the L-glutamine solution was added immediately before use. After the addition of doxorubicin, culture was performed under conditions of 37° C. and 5 vol % CO2 for 24 hours.
After 24 hours from induction of senescence, TIBC-CANDDY_MLN was added to TIG3 cells as follows. As a medium, a serum-free medium (37° C.) in which 1 mass % L-glutamine solution (Sigma-Aldrich) was added to D-MEM (high D-glucose, phenol red, sodium pyruvate (Wako Pure Chemical Industries, Ltd.)) was used. It is noted that the L-glutamine solution was added immediately before use. A DMSO solution containing TIBC-CANDDY_MLN was mixed with the medium so that the concentration of DMSO was 1 vol %, and added to each well at 500 μL/well, and cultured under conditions of 37° C. and 5 vol % CO2 for 48 hours. As a control, DMSO was used.
For quantification of SA-β-gal as a senescence marker, a commercially available kit (Cellular Senescence Detection Kit-SPiDER-βGal (DOJINDO LABORATORIES)) was used. […]
A BD FACSCanto™ II (BD Biosciences) was used for flow cytometry to detect SA-β-gal labeled with FITC. […] A histogram of the FITC strength was created by an analysis software FlowJo™ (TOMY Digital Biology Co., Ltd.), and the senescence suppressing action by TIBC-CANDDY_MLN was evaluated from a shift in the histogram.

CC(C)C[C@H](NC(=O)CNC(=O)c1cc(Cl)ccc1Cl)C(=O)NCCCCCCC(=O)Nc1ccc(C(=O)/C=C/c2ccc(I)cc2)cc1 [TIBC-CANDDY_MLN]
cellular senescence suppressing action: about 80% | shift to SA-β-gal (senescence marker) positive (FACS histogram): hardly observed

Source: patent publication US11007269B2, “P53 degradation inducing molecule and pharmaceutical composition” (Tokyo University of Science Foundation, priority 2016, dated 2021)
